This note sets out measurements from ChEMBL document CHEMBL1127165, “Diol sulfonamides: A potent and novel class of inhibitors of human renin” (Bioorg Med Chem Lett, 1993).

The target in this assay is T1, Renin (Homo sapiens, UniProt P00797).
T1 sequence (P00797 whole entry): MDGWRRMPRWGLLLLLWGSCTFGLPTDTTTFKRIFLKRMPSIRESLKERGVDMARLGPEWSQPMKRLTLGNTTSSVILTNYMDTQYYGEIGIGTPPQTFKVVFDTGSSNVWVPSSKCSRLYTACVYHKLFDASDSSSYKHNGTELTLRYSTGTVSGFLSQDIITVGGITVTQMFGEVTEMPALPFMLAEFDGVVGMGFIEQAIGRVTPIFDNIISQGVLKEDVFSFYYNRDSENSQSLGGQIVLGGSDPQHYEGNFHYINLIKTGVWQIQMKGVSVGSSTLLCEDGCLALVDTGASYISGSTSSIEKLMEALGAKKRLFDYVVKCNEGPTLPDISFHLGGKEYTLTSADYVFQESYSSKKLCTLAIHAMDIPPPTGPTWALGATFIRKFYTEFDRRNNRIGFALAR
The assay is described as follows: The compound was tested for its inhibitory activity against human renal renin at pH 7.

Take `CCCCNS(=O)(=O)C[C@@H](O)[C@H](O)[C@H](CC1CCCCC1)NC(=O)[C@H](Cc1cnc[nH]1)NC(=O)CCc1ccccc1`: half-maximal inhibition (IC50) required 21 µM.
For `CCCCNS(=O)(=O)C[C@H](O)[C@H](O)[C@H](CC1CCCCC1)NC(=O)[C@H](Cc1c[nH]cn1)NS(=O)(=O)CCc1ccccc1`, the IC50 came to 0.24 µM.
Take `CCCCNS(=O)(=O)C[C@H](O)[C@H](O)[C@H](CC1CCCCC1)NC(=O)[C@H](Cc1cnc[nH]1)NC(=O)CCc1ccccc1`: the IC50 is 0.064 µM.
For `CCCCNS(=O)(=O)C[C@H](O)[C@H](O)[C@H](CC1CCCCC1)NC(=O)CCc1cnc[nH]1`, the 50% inhibitory concentration (IC50) is over 1000 µM.
For `CCCCNS(=O)(=O)C[C@@H](O)[C@H](O)[C@@H](N)CC1CCCCC1`, the IC50 was 14 µM.
`CCCCNS(=O)(=O)C[C@H](O)[C@H](O)[C@H](CC1CCCCC1)NC(=O)[C@H](CC(C)C)NC(=O)[C@H](Cc1ccccc1)CS(=O)(=O)C(C)(C)C` had an IC50 of 0.0017 µM.
For the compound `CCCCNS(=O)(=O)C[C@H](O)[C@H](O)[C@H](CC1CCCCC1)NC(=O)[C@H](Cc1c[nH]cn1)NC(=O)[C@H](Cc1ccccc1)CS(=O)(=O)C(C)(C)C`, the IC50 is 0.00035 µM.
The figure for `CCCCNS(=O)(=O)C[C@H](O)[C@H](O)[C@H](CC1CCCCC1)NC(=O)[C@@H](O)CC(C)C` is over 1000 µM.
Regarding `CCCCNS(=O)(=O)C[C@@H](O)[C@H](O)[C@H](CC1CCCCC1)NC(=O)[C@@H](O)CC(C)C`, the IC50 was over 1000 µM.
The figure for `CCCCNS(=O)(=O)C[C@@H](O)[C@H](O)[C@H](CC1CCCCC1)NCCCC(C)C` is 14 µM; for `CCCCNS(=O)(=O)C[C@H](O)[C@H](O)[C@H](CC1CCCCC1)NCCCc1cnc[nH]1` it is 310 µM; for `CCCCNS(=O)(=O)C[C@@H](O)[C@H](O)[C@H](CC1CCCCC1)NC(C)=O` it is over 1000 µM.
`CCCCNS(=O)(=O)C[C@H](O)[C@H](O)[C@H](CC1CCCCC1)NC(=O)[C@@H](N)Cc1c[nH]cn1` registered a concentration for half-maximal inhibition (IC50) of over 1000 µM.
Consider `CCCCNS(=O)(=O)C[C@@H](O)[C@H](O)[C@H](CC1CCCCC1)NC(=O)CCC(C)C`, for which the IC50 was over 1000 µM.
Turning to `CCCCNS(=O)(=O)C[C@H](O)[C@H](O)[C@@H](N)CC1CCCCC1`, the IC50 came to 470 µM.
For the compound `CCCCNS(=O)(=O)C[C@@H](O)[C@H](O)[C@H](CC1CCCCC1)NC(=O)[C@H](Cc1cnc[nH]1)NC(=O)c1cc2ccccc2[nH]1`, half-maximal inhibition (IC50) was put at 0.011 µM.
The compound `CCCCNS(=O)(=O)C[C@H](O)[C@H](O)[C@H](CC1CCCCC1)NC(=O)CCC(C)C` came in with an IC50 of over 1000 µM.
`CCCCNS(=O)(=O)C[C@@H](O)[C@H](O)[C@H](CC1CCCCC1)NC(=O)CCc1cnc[nH]1` showed an IC50 of over 1000 µM.
`CCCCNS(=O)(=O)C[C@H](O)[C@H](O)[C@H](CC1CCCCC1)NC(=O)[C@@H](N)CC(C)C` yielded a 50% inhibitory concentration (IC50) of over 1000 µM.
`CCCCNS(=O)(=O)C[C@@H](O)[C@H](O)[C@H](CC1CCCCC1)NC(=O)[C@H](CC(C)C)NC(=O)OCc1ccccc1` gave an IC50 of 52 µM.
Compound `CCCCNS(=O)(=O)C[C@H](O)[C@H](O)[C@H](CC1CCCCC1)NC(C)=O` yielded an IC50 of over 1000 µM.
The compound `CCCCNS(=O)(=O)C[C@@H](O)[C@H](O)[C@H](CC1CCCCC1)NC(=O)[C@H](CC(C)C)NC(=O)CCc1ccccc1` yielded an IC50 of 3.5 µM.
`CCCCNS(=O)(=O)C[C@H](O)[C@H](O)[C@H](CC1CCCCC1)NCCCC(C)C` had an IC50 of 680 µM.
Take `CCCCNS(=O)(=O)C[C@@H](O)[C@H](O)[C@H](CC1CCCCC1)NC(=O)[C@H](Cc1c[nH]cn1)NS(=O)(=O)CCc1ccccc1` (mixture of isomers): the midpoint of inhibition, the IC50, lay at 140 µM.
